Measurements from the NIST ThermoML archive (doi:10.1016/j.jct.2009.07.005).

Experiments:
[1] = xn = mol fraction of the nth substance listed; settings: 101 kPa, Liquid, Small sample (50 mg) DSC
[2] = molar heat capacity at constant pressure; xn = mol fraction of the nth substance listed; settings: 101 kPa, Liquid, Small sample (50 mg) DSC
[3] = molar heat capacity at constant pressure; settings: 101.33 kPa, Liquid, Small sample (50 mg) DSC

C1CNCCN1 [piperazine] + CN(CCO)CCO
Settings | excess molar heat capacity, x1 = 0.1 [J/K/mol] | excess molar heat capacity, x1 = 0.2 [J/K/mol] | excess molar heat capacity, x1 = 0.3 [J/K/mol] | excess molar heat capacity, x1 = 0.4 [J/K/mol] | molar heat capacity at constant pressure, x1 = 0.1 [J/K/mol] | molar heat capacity at constant pressure, x1 = 0.2 [J/K/mol] | molar heat capacity at constant pressure, x1 = 0.3 [J/K/mol] | molar heat capacity at constant pressure, x1 = 0.4 [J/K/mol]
[1], 303.2 K | 2.3 | 3.92 | 5.4 | 6.21 | – | – | – | –
[1], 308.2 K | 2.46 | 4.22 | 5.73 | 6.61 | – | – | – | –
[1], 313.2 K | 2.63 | 4.52 | 6.06 | 7.01 | – | – | – | –
[1], 318.2 K | 2.79 | 4.82 | 6.4 | 7.41 | – | – | – | –
[1], 323.2 K | 2.97 | 5.11 | 6.74 | 7.82 | – | – | – | –
[1], 328.2 K | 3.12 | 5.51 | 7.06 | 8.22 | – | – | – | –
[1], 333.2 K | 3.29 | 5.82 | 7.41 | 8.62 | – | – | – | –
[1], 338.2 K | 3.46 | 6.1 | 7.73 | 9.02 | – | – | – | –
[1], 343.2 K | 3.63 | 6.4 | 8.06 | 9.42 | – | – | – | –
[1], 348.2 K | 3.79 | 6.7 | 8.39 | 9.83 | – | – | – | –
[1], 353.2 K | 3.95 | 6.99 | 8.72 | 10.23 | – | – | – | –
[2], 303.2 K | – | – | – | – | 264.4 | 256.6 | 248.7 | 240.1
[2], 308.2 K | – | – | – | – | 267.7 | 260 | 252 | 243.3
[2], 313.2 K | – | – | – | – | 271.1 | 263.3 | 255.2 | 246.6
[2], 318.2 K | – | – | – | – | 274.4 | 266.7 | 258.5 | 249.8
[2], 323.2 K | – | – | – | – | 277.7 | 270 | 261.8 | 253
[2], 328.2 K | – | – | – | – | 281 | 273.5 | 265.1 | 256.3
[2], 333.2 K | – | – | – | – | 284.4 | 276.8 | 268.4 | 259.5
[2], 338.2 K | – | – | – | – | 287.7 | 280.2 | 271.6 | 262.7
[2], 343.2 K | – | – | – | – | 291.1 | 283.5 | 274.9 | 266
[2], 348.2 K | – | – | – | – | 294.4 | 286.9 | 278.2 | 269.2
[2], 353.2 K | – | – | – | – | 297.7 | 290.2 | 281.4 | 272.4

C1CNCCN1 [piperazine]
[3]
Settings | molar heat capacity at constant pressure [J/K/mol]
393.2 K | 216.3
398.2 K | 218.7
403.2 K | 220.5
408.2 K | 222.8
413.2 K | 225
